We go through one molecule from article PMC12677843, “Multidisciplinary Preclinical Investigations on Ferrocenyl, Ruthenocenyl, and Benzyl Derivatives of Niridazole as New Drug Candidates against Schistosomiasis” (Chemmedchem, 2025).

Each structure is given as a SMILES string. Like-named read-outs stand apart in the source and are kept apart here.

For the assay, the system named is adult S. mansoni. Description: In vitro drug sensitivity assay on adult S. mansoni (microscopic viability scoring). Format: cell-based, Schistosoma mansoni. Particulars: for EC50: Schistosoma mansoni, 37 °C, 5% CO2. The method, then:
Figure 3 In vitro activity at 50 µM of the 12 compounds on adult S. mansoni. Adult schistosomes were incubated in culture media for 72 h at 37 °C and 5% CO2 with either compound (50 µM) or a DMSO (0.5%) control. The viability of the worms was microscopically evaluated and scored (0—3, in 0.5 steps) every 24 h. Results are from two independent experiments, each performed in duplicate. Drug activities were normalized to the DMSO controls. Data represent mean ± SD in percentage of DMSO control. […]
In vitro evaluation on adult S. mansoni
After a week for acclimatization to the new environment with controlled conditions (temperature: 22 °C ± 2 °C, humidity: 50 % ± 10 %, 12:12 h light/dark photocycle), four-week-old female NMRI mice (Charles River, Sulzfeld, Germany) were subcutaneously infected with approximately 100 cercariae to establish the S. mansoni infection. In the S. mansoni infected mice the worms were allowed to develop for 7 weeks into the adult stage, before they were extracted from the mesenteric veins of the euthanized mice. The adult worms were placed into RPMI 1640 (Gibco, Waltham MA, USA) medium supplemented with 1 % penicillin/streptomycin mixture and 5 % iFCS at 37 °C and 5 % CO 2. The drug sensitivity assay was set up in a 24-well plate with two wells containing each two pairs of S. mansoni worms per compound and concentration.
The final volume per well was 2 mL, containing the culture medium and the corresponding amount of drug dissolved in DMSO. The maximum concentration tested was 50 µM, corresponding to 0.5 % DMSO, to which all the other wells were adapted […]
to, so that all test concentrations contained always the same amount of DMSO.
Additionally, 2 wells with negative controls containing only DMSO and the culture medium were included. After an incubation period of 72 h at 37 °C and 5 % CO 2, the worms were microscopically evaluated. The drug effect was determined 24, 48 and 72 h post-exposure based on the phenotype of the adult worms, using a viability scale ranging from three referring to viable, motile worms with no change in their tegument to zero standing for the death of the worms.
All described in vitro studies with mice involved, were conducted at the Swiss Tropical and Public Health Institute, first in Basel, later in Allschwil, and had the approval by the corresponding veterinary authorities of the Canton Basel-Stadt (permit no. 2070)

By EC50 is commonly meant the concentration giving half of the maximal effect. On to `O=C1NCCN1c1ncc([N+](=O)[O-])s1` [Niridazole, niridazole], for which the “drug effect at 50 µM on adult S. mansoni” value (50 µM, 72 h incubation, normalized to DMSO control, active if ≥60%) amounted to 83%. The EC50 was over 50 µM (24 h, 24 h drug exposure, read-out: EC50 on adult S. mansoni, 24 h); 7.8 µM (48 h, 48 h drug exposure, read-out: EC50 on adult S. mansoni, 48 h); 5.6 µM (72 h, 72 h drug exposure, read-out: EC50 on adult S. mansoni, 72 h).
